Molecules are shown by their SMILES.

This note sets out measurements from BindingDB's records for doi:10.1016/S0960-894X(01)00040-3 (Glaxosmithkline, 2001).

The target in the assay is Tyrosine--tRNA ligase (Staphylococcus aureus). In words: Inhibitory activity against Staphylococcus aureus tyrosyl tRNA synthetase (YRS) using aminoacylation assay.
Take `CCCCOC(=O)C(NC(=O)[C@@H](N)Cc1ccc(O)cc1)[C@H]1C[C@@H](O)[C@@H](O)[C@@H](C)O1` (stereo partly drawn) [[2-Amino-3-((S)-4-hydroxy-phenyl)-propionylamino]-((2R,4R,5R,6R)-4,5-dihydroxy-6-methyl-tetrahydro-pyran-2-yl)-acetic acid butyl ester]: the IC50 (as a rule, the concentration that inhibits the measured activity by half) came to 3.6 nM.

Turning to `N[C@@H](Cc1ccc(O)cc1)C(=O)NC(C(=O)O)[C@@H]1O[C@H](CO)[C@H](O)[C@H](O)[C@H]1O` (stereo partly drawn) [[2-Amino-3-((S)-4-hydroxy-phenyl)-propionylamino]-((2S,3R,4R,5R,6R)-3,4,5-trihydroxy-6-hydroxymethyl-tetrahydro-pyran-2-yl)-acetic acid], inhibition was half-maximal at 190 nM (IC50).

Turning to `CCCCOC(=O)[C@@H](NC(=O)[C@@H](N)Cc1ccc(O)cc1)[C@@H]1O[C@H](C)[C@H](O)[C@H](O)[C@H]1O` [[2-Amino-3-((S)-4-hydroxy-phenyl)-propionylamino]-((2S,3R,4S,5R,6R)-3,4,5-trihydroxy-6-methyl-tetrahydro-pyran-2-yl)-acetic acid (S)-butyl ester], the IC50 was 0.8 nM.
